Data as given in patent publication US10676538B2, “Inhibitors of Staphylococcus pseudintermedius sortase” (priority 2017, dated 2020).
Where two headings read alike, the source gives them in different places.

What was measured:
[1] = tested on: S. pseudintermedius isolates; assay: flow cytometry of cell wall-associated Protein A on bacteria grown with inhibitor (indirect SrtA inhibition); assay type: cell-based, Staphylococcus pseudintermedius; conditions: compared to control without inhibitor
Experimental: FIG. 4: […] bacterial isolates 08-3228, 08-1661, NA12, NA16 and NA45 were grown in the presence of inhibitor 1847 until exponential log phase. S. pseudintermedius recombinant SrtA inhibition was measured indirectly by determining the density of cell wall associated Protein A (one of the LPXTG proteins targeted by SrtA) using flow cytometry. Protein A was detected with FITC conjugated chicken anti-protein A (Gallus immunotech, Cary, N.C.). The values represent average from three independent experiments with the standard deviations shown at the top of each bar.
Inhibition of SrtA in bacterial cells was measured indirectly by measuring the decrease in the amount of Protein A on the bacterial surface using flow cytometry. Five representative S. pseudintermedius isolates were tested. […] Isolate NA45 was not affected by compound 1847.

[2] = tested on: S. pseudintermedius recombinant SrtA; assay: in vitro FRET-based functional assay of recombinant SrtA; assay type: biochemical, Staphylococcus pseudintermedius; conditions: compared to buffer controls, averages from three independent experiments
Experimental: Compounds predicted to bind to the active site were identified. Initially, from the 200 highest ranked compounds, twenty were selected. […] The assay to determine the functional activity of recombinant SrtA and its inhibition was performed in 96-well black microtiter plates with clear bottom (Corning, Fisher Scientific, Hampton, N.H.) in a final reaction volume of 200 μl. Fluorescent-quenched bacterial sortase substrate III, Abz/DNP (Abz-LPETG-K(Dnp)-NH2 (GenScript Inc., Piscataway, N.J.) dissolved in isopropanol was used for Km determination. Varying concentrations of the substrate (2.5 μM-200 μM) were incubated at 25° C. with 1 μM of SrtA diluted in assay buffer (50 mM Tris-HCl, 150 mM NaCl, 5 mM CaCl2, and 0.1% Triton X-100, pH 7.5). The increase in fluorescence was measured in a kinetic assay for 20 min at 2 min intervals using a Synergy HTX multimode reader (BioTek, Winooski, Vt.) at wavelengths 320 excitation/420 emission. The initial velocity V0 was determined from the linear portion of the curve and the Km was determined using the Michaelis-Menten equation where V=Vmax[S]/([S]+Km). To measure the effect of inhibitors recombinant SrtA was pre-incubated with varying amounts of the inhibitor at […] and subjected to the same FRET assay.

Sortase A = conditions: 10 μM SrtA, 4 μM inhibitor
Experimental: The native enzyme, enzyme-inhibitor complex and appropriate controls were added to the wells of a 48-well plate (total reaction volume 10 μl/well). The reactions contained SYPRO orange (Invitrogen, Carlsbad, Calif.) purchased as a 5,000× stock and used at a 2× final concentration.

Compound: O=S(=O)(O)c1ccc(N=Nc2ccccc2)cc1 [Compound 1847]
- reduction in the density of cell wall-associated Protein A ([1]; isolate 06-3228): 38.7%
- reduction in the density of cell wall-associated Protein A ([1]; isolate 08-1661): 74.3%
- reduction in the density of cell wall-associated Protein A ([1]; isolate NA12): 42.8%
- reduction in the density of cell wall-associated Protein A ([1]; isolate NA16): 89.4%
- reduction in the density of cell wall-associated Protein A ([1]; isolate NA45): not affected
- inhibition of SrtA [2]: 50-80%
- melting temperature of 1847-stabilized Sortase A (Sortase A; Srt A in His-Tag elution buffer): 86.56 °C
- melting temperature of 1847-stabilized Sortase A (Sortase A; Srt A in PBS): 86.81 °C

Compound: COc1ccc(N2CCN(S(=O)(=O)Cc3ccc(F)cc3)CC2)cc1 [STL223442]
- inhibition of SrtA [2]: 13.75%

Compound: C[N+](C)(C)CCSS(C)(=O)=O.[Br-] [MTSET, reference compound]
- inhibition of SrtA [2]: 57.5%

Compound: N#Cc1ccc(NS(=O)(=O)Cc2ccccc2)cc1 [STK022091]
- inhibition of SrtA [2]: did not have any detectable inhibitory effect
- inhibition of SrtA ([2]; listed as SKT022091): did not have inhibitory effect
